Assay results taken from article PMC10141604, “Small-Molecule Inhibition of Androgen Receptor Dimerization as a Strategy against Prostate Cancer” (ACS Central Science, 2023).

Experiments:
AR = biological target: T1, AR (Homo sapiens, UniProt P10275, T878A); experiment: AR transcriptional activity assay (LNCaP-ARR2PB-eGFP cells); format: cell-based; conditions: 5 nM DHT
T1 construct: The cells of LNCaP-ARR2PB-eGFP were; endogenous in cells; host or cells: LNCaP-ARR2PB-eGFP
T1 sequence (P10275 1-920 T878A): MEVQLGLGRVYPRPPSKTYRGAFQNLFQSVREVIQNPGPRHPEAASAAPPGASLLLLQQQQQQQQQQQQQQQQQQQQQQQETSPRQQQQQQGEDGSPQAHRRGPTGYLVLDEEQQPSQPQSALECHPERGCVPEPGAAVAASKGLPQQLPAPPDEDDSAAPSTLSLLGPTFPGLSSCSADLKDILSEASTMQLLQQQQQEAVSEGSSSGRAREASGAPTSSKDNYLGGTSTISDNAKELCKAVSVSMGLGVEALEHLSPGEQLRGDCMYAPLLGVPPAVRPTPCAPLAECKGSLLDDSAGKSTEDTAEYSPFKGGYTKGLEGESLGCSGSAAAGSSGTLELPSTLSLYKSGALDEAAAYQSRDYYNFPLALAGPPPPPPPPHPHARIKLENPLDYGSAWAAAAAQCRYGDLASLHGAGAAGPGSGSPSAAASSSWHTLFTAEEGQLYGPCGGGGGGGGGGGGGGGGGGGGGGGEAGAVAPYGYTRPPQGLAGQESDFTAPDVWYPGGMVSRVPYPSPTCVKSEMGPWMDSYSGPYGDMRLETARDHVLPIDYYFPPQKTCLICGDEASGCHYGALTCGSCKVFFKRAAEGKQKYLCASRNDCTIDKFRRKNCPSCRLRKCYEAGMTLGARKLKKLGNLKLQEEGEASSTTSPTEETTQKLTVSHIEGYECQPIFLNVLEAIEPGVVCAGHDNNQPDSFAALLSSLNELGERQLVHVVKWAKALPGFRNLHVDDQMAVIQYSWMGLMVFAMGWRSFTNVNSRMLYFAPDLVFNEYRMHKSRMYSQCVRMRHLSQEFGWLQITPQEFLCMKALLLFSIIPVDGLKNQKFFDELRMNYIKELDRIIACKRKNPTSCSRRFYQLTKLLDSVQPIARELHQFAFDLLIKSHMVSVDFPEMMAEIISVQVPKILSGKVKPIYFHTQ
Protocol: University, Hangzhou, China), respectively. […]
AR Transcriptional Activity Assay
The AR transcriptional activities were determined using the constructed LNCaP-ARR2PB-eGFP cell as previously reported.11, 12 The cells of LNCaP-ARR2PB-eGFP were […]
by seeding into a 96 -well plate (3.5× 10^4 cells/well) for 1 day incubation at 37 °C. Then, the cells were treated with 5 nM DHT and various concentrations of compounds (10 μM […]
the fluorescence intensities were determined using a Synergy H1 microplate reader

AR LBP = biological target: T2, AR LBP (Rattus norvegicus, UniProt P15207); experiment: Competitive ligand-binding assay (PolarScreen AR competitor assay)
T2 construct: purchased Invitrogen Life Technologies A15880
Protocol: Competitive Ligand Binding Assay
The binding affinities of M17 and M17-B15 to the LBP of AR LBD were determined
using PolarScreen™ Androgen Receptor Competitor Assay Kit (#A15880, Invitrogen Life
Technologies) according to the user manual. […]

[1] = system: secreted PSA from LNCaP cells; experiment: Secreted prostate-specific antigen (PSA) assay; format: cell-based
Protocol: Secreted Prostate-Specific Antigen (PSA) Assay
After the AR transcriptional activity assay was completed, 300 μl of the media
supernatant including the secreted PSA was measured using […]® 2000 XPi
Immunoassay System (Siemens Ltd., Erlangen, Germany). […]

NIH-3T3 = experiment: MTT cell viability assay, NIH-3T3; format: cell-based, murine; conditions: 72 h
Protocol: (§1) 3-(4,5-dimethythiazol-2-yl)-2,5-diphenyl-2-H-tetrazolium bromide (MTT) colorimetric assay was employed to investigate cell viability. Cells were seeded into 96-well plates with 2-5× 10^3 cells per well (5× 10^3 cells/well for LNCaP, 22RV1, NIH-3T3, GES-1, Chang, […]
(§2) NCI-H1299, U2OS, U87) for 1 day incubation at 37 °C. Then, the cells were treated with various concentrations of compounds (22.86 nM - 50 μM) and incubated for 72 h. Then, 10 μl MTT (5 mg/ml) was added into each well and incubated for 4 h. Afterwards, 100 μl of triplex 10% SDS-0.1% HCl-phosophate-buffered saline (PBS) solutions was added into each well and incubated for overnight. The absorbance at 570 nm was measured (Eon, Bioteck, Winooski, VT). […]

LNCaP = experiment: MTT cell viability assay, LNCaP; format: cell-based; conditions: 72 h
Protocol: as §1, §2

T2 sequence (P15207 651-882 limits assumed): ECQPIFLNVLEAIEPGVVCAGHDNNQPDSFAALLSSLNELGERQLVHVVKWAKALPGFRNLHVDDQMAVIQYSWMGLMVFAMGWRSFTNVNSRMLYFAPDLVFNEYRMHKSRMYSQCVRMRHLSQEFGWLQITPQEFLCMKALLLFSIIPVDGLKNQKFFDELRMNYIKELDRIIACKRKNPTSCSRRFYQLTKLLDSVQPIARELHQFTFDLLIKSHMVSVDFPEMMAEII

- IC50 (AR; LNCaP-ARR2PB-eGFP cells, 3 days): 950 ± 390 nM
- inhibition at 10 µM (AR; at 10 μM): 92.7%
- binding to the conventional LBP (AR LBP): excluded
Compound: CC(=O)Cc1nsc(NC(=O)c2cc(-c3ccc(Cl)c(Cl)c3)oc2C)n1 [Compound M17]
- inhibition of the secretion of PSA [1]: dose-dependently inhibits
- cytotoxicity against NIH-3T3 (NIH-3T3): negligible cytotoxicity
- inhibition of LNCaP viability (LNCaP): dose-dependent manner in the inhibition
